One experiment relates to E. faecalis OG1RF. Put plainly: Stand alone activity in vivo, mouse model of catheter-associated urinary tract infection (CAUTI). On the set-up: species or system Enterococcus faecalis. Conditions: C57BL/6Ncr mice, 10 mg/kg intraperitoneally 24 hours post-infection, sacrificed 48 hours post-infection, compound alone. The method, then:
Mice used in this study were six-week-old female wild-type C57BL/6Ncr mice. Mice were anesthetized by inhalation of isoflurane and implanted with a 5-mm length of platinum-cured silicone catheter. Then, mice were infected immediately following catheter implantation with 50 μl of ˜2×10^7 CFU of E. faecalis OG1RF in PBS (1 mL) was introduced in the bladder lumen by transurethral inoculation. […] Mice were sacrificed at 48 hours post-infection by cervical dislocation after anaesthesia inhalation, and the bladders were aseptically harvested. Subsequently, the silicone implant was retrieved from the bladder. Catheters were placed in 1×PBS (1 mL), sonicated for 10 min, to detach E. faecalis and bladders were homogenized in 1×PBS (1 mL).
Mice used in this study were six-week-old female wild-type C57BL/6Ncr mice. Mice were anesthetized by inhalation of isoflurane and implanted with a 5-mm length of platinum-cured silicone catheter.
Mice were sacrificed at 48 hours post-infection by cervical dislocation after anaesthesia inhalation, and the bladders were aseptically harvested. Subsequently, the silicone implant was retrieved from the bladder. Catheters were placed in 1×PBS (1 mL), sonicated for 10 min, to detach E. faecalis and bladders were homogenized in 1×PBS (1 mL). For bacterial enumeration on catheters and bladder, samples were serially diluted and plated on BHI for CFU enumeration.

The test system of experiment [1] is MRSA. The experiment is described as follows: Minimum Inhibitory Concentration (MIC) and Minimum Bactericidal Concentration (MBC) assays. It counts as cell-based, Methicillin-resistant Staphylococcus aureus. The note with it: Staphylococcus aureus, compound alone, no antibiotic; for MIC: 18 h, overnight (18 hrs), read-out: MIC. The procedure: (§1) MIC was defined by the lowest concentration of the test compound that inhibits visible growth of pathogen of interest. The optical density of the pathogen of interest culture was measured by OD600.
(§2) MBC was determined colony forming units (CFUs) enumeration by serially diluting and plating bacterial cultures on BHI plates.
(§3) Thus, no antibiotic was used in Table 2.

In the next experiment the test system is E. faecalis. The experiment is described as follows: MIC and MBC assays. It is filed as cell-based. The note with it: Enterococcus faecalis, compound alone, no antibiotic; for MIC: overnight (18 hrs). The method, then: as §1, §2, §3
Experiment [2] concerns MRSA. The experiment is described as follows: Effect of combination with Oxacillin on MRSA, CFU counts. It is filed as cell-based, Methicillin-resistant Staphylococcus aureus. Conditions: Oxacillin 9 μM and DMSO (no test compound), 37° C. 18 h. The procedure: The mixture (200 μL) was incubated at 37° C. for 18 h. A control without the test compound was performed in the same way.

The test system of another experiment is Staph. aureus. Put plainly: MIC and MBC assays. It is filed as cell-based. The note with it: Staphylococcus aureus, compound alone, no antibiotic; for MIC: overnight (18 hrs). The method, then:
(§4) […]. MIC was defined by the lowest concentration of the test compound that inhibits visible growth of pathogen of interest. The optical density of the pathogen of interest culture was measured by OD600.
(§5) […]. MBC was determined colony forming units (CFUs) enumeration by serially diluting and plating bacterial cultures on BHI plates.
(§6) . Thus, no antibiotic was used in Table 2.

A further experiment has as its system Staph. saphyticus. The experiment is described as follows: MIC and MBC assays. It counts as cell-based. Conditions: Staphylococcus, compound alone, no antibiotic; for MIC: overnight (18 hrs). The procedure: as §4, §5, §6
For another experiment, the system named is Strep. pyogenes. The experiment is described as follows: MIC and MBC assays. It counts as cell-based. The note with it: Streptococcus pyogenes, compound alone, no antibiotic; for MIC: overnight (18 hrs). The method, then: as §4, §5, §6
The next experiment deals with C. diff. Put plainly: MIC and MBC assays. It counts as cell-based, Clostridium difficile. The note with it: Clostridioides difficile, compound alone, no antibiotic; for MIC: overnight (18 hrs). The procedure: as §4, §5, §6
In a further experiment the test system is Streptococcus. The experiment is described as follows: MIC and MBC assays. It counts as cell-based. The note with it: compound alone, no antibiotic. The procedure: as §1, §2, §3

Data on seven molecules can be found in patent US12472168B2, “Ring-fused thiazolino 2-pyridones, methods for preparation thereof and their use in the treatment and/or prevention of a disease involving gram-positive bacteria” (Quretech Bio AB, priority 2017, dated 2025).

≈ marks a conversion by molar mass, not a printed value.

Turning to `COc1c(Cc2cccc3ccccc23)cc(=O)n2c(C(=O)O)c(-c3ccc(OCCCC(C)C)c(C)c3)sc12` [Example 50, 1H-imidazol-1-ium 8-methoxy-2-(3-methyl-4((4-methylpentyl)oxy)phenyl)-7-(naphtalen-1-ylmethyl)-5-oxo-thiazolo[3,2-a]pyridine-3-carboxylate], the “reduction of bacterial titers in the bladder” value (“reduction … in the bladder” for short) in the experiment on E. faecalis OG1RF (10 mg/kg) is reported as “about 0.5 log units”.

A word on the MIC: it is the smallest concentration in the dilution series that meets the test's criterion for growth inhibition. As to `COc1c(Cc2cccc3ccccc23)cc(=O)n2c(C(=O)O)c(-c3ccc(OCCCC(C)C)c(C)c3)sc12` [Example 23, 8-[4-(Isohexyloxy)-3-methyl-phenyl]-5-methoxy-4-[(1-naphthyl)methyl]-2-oxo-7-thia-1-azabicyclo[4.3.0]nona-3,5,8-triene-9-carboxylic acid], the MIC with MRSA [1] is 45 µM (≈ 25 µg/mL). In addition, the MIC in the experiment on E. faecalis was more than 100 µM. Also, in the experiment on E. faecalis OG1RF, the “reduction … in the bladder” value is reported as “about 1.5 log units” and the “reduction of bacterial titers on the catheters” value (“reduction … on the catheters” below) is “about 0.4 log units”.

In the case of `Cc1onc(-c2ccccc2)c1C(=O)N[C@@H]1C(=O)N2[C@@H]1SC(C)(C)[C@@H]2C(=O)O` [Oxacillin, oxacillin, reference compound], the figures for the CFUs/ml with MRSA [2] (MRSA OD 0.001), with MRSA [2] (MRSA OD 0.1) and with MRSA [2] (MRSA OD 1) were 600 CFUs/ml, 1.6E+10 CFUs/ml and 2.2E+09 CFUs/ml, respectively.

One may read the MBC as the lowest tested concentration that kills the bacteria rather than only halting them. For the molecule `O=C(O)C1CSc2c(-c3cccc(C(F)(F)F)c3)c(Cc3c4ccccc4cc4ccccc34)cc(=O)n21` (stereo not shown) [Example 37, 6-[(9-Anthryl)methyl]-4-oxo-7-[m-(trifluoromethyl)phenyl]-1-thia-3a-aza-3-indancarboxylic acid], the MIC is 25 µM (≈ 13.3 µg/mL) with MRSA [1]; 50 µM (≈ 26.6 µg/mL) in the experiment with Staph. aureus; more than 500 µM with Staph. saphyticus; 12.5 µM (≈ 6.64 µg/mL) against Strep. pyogenes; 100 µM (≈ 53.2 µg/mL) in the experiment on E. faecalis; 50 µM (≈ 26.6 µg/mL) in the experiment on C. diff. For the same molecule, the minimum bactericidal concentration (MBC) with MRSA [1] came to 25 µM (≈ 13.3 µg/mL); in the experiment on Staph. aureus it was 50 µM (≈ 26.6 µg/mL); with Staph. saphyticus it was 25 µM (≈ 13.3 µg/mL); against Strep. pyogenes it was 12.5 µM (≈ 6.64 µg/mL); against E. faecalis, 400 µM (≈ 213 µg/mL); against C. diff it was 50 µM (≈ 26.6 µg/mL).

As to `O=C(O)c1c(Cc2ccccc2)sc2c(C3CC3)c(Cc3cccc4ccccc34)cc(=O)n12` [Example 28, 8-Benzyl-5-cyclopropyl-4-[(1-naphthyl)methyl]-2-oxo-7-thia-1-azabicyclo[4.3.0]nona-3,5,8-triene-9-carboxylic acid], the MIC with MRSA [1] was 25 µM (≈ 11.6 µg/mL); against Staph. aureus, 25 µM (≈ 11.6 µg/mL); against Staph. saphyticus it was 100 µM (≈ 46.6 µg/mL); in the experiment on Strep. pyogenes it was 12.5 µM (≈ 5.82 µg/mL); with E. faecalis it was 25 µM (≈ 11.6 µg/mL); against C. diff, 50 µM (≈ 23.3 µg/mL). In addition, the minimum bactericidal concentration (MBC) in the experiment with MRSA [1] amounted to 50 µM (≈ 23.3 µg/mL); against Staph. aureus, 50 µM (≈ 23.3 µg/mL); against Staph. saphyticus, 25 µM (≈ 11.6 µg/mL); with Strep. pyogenes, 25 µM (≈ 11.6 µg/mL); in the experiment with E. faecalis, 100 µM (≈ 46.6 µg/mL); against C. diff, 50 µM (≈ 23.3 µg/mL). Also, in the experiment on E. faecalis OG1RF, the “reduction … in the bladder” value is reported as “about 0.5 log units”. For the same molecule, the “reduction … on the catheters” value in the experiment on E. faecalis OG1RF is listed as “about 0.4 log units”.

`Cc1cccc(-c2sc3c(C4CC4)c(Cc4cccc5ccccc45)cc(=O)n3c2C(=O)O)c1` [Example 30, 5-Cyclopropyl-4-[(1-naphthyl)methyl]-2-oxo-8-(m-tolyl)-7-thia-1-azabicyclo[4.3.0]nona-3,5,8-triene-9-carboxylic acid]: the minimum inhibitory concentration (MIC) came to 25 µM (≈ 11.6 µg/mL) in the experiment with MRSA [1]; 50 µM (≈ 23.3 µg/mL) with Staph. aureus; 100 µM (≈ 46.6 µg/mL) against Staph. saphyticus; 25 µM (≈ 11.6 µg/mL) in the experiment on Strep. pyogenes; 50 µM (≈ 23.3 µg/mL) in the experiment on E. faecalis; 50 µM (≈ 23.3 µg/mL) with C. diff. The MBC in the experiment on MRSA [1] was determined as 50 µM (≈ 23.3 µg/mL); in the experiment with Staph. aureus it was 50 µM (≈ 23.3 µg/mL); against Staph. saphyticus, 12.5 µM (≈ 5.82 µg/mL); against Strep. pyogenes it was 12.5 µM (≈ 5.82 µg/mL); against E. faecalis, 100 µM (≈ 46.6 µg/mL); with Streptococcus it was 19 µM (≈ 8.85 µg/mL). In addition, the minimum bactericidal concentration (MBC) in the experiment on C. diff stood at 50 µM (≈ 23.3 µg/mL). Besides, the “reduction … in the bladder” value with E. faecalis OG1RF is recorded as “about 1.5 log units”. Moreover, in the experiment with E. faecalis OG1RF, the “reduction … on the catheters” value is on record as “about 1 log units”.

For the molecule `O=C(O)C1CSc2c(-c3cccc(C(F)(F)F)c3)c(Cc3cccc4ccccc34)cc(=O)n21` (stereo not shown) [Example 38, 6-[(1-Naphthyl)methyl]-4-oxo-7-[m-(trifluoromethyl)phenyl]-1-thia-3a-aza-3-indancarboxylic acid], the MIC was 200 µM (≈ 96.3 µg/mL) with MRSA [1]; 200 µM (≈ 96.3 µg/mL) against Staph. aureus; 250 µM (≈ 120 µg/mL) in the experiment with Staph. saphyticus; 50 µM (≈ 24.1 µg/mL) against Strep. pyogenes; 200 µM (≈ 96.3 µg/mL) against E. faecalis; 200 µM (≈ 96.3 µg/mL) against C. diff. Further, the minimum bactericidal concentration (MBC) in the experiment on MRSA [1] turned out to be 250 µM (≈ 120 µg/mL); against Staph. aureus it was 250 µM (≈ 120 µg/mL); in the experiment on Staph. saphyticus it was 50 µM (≈ 24.1 µg/mL); with Strep. pyogenes, 50 µM (≈ 24.1 µg/mL); in the experiment with E. faecalis, 250 µM (≈ 120 µg/mL); with C. diff, 200 µM (≈ 96.3 µg/mL).
